Assay results reported in publication PMC7377239, “Cardiovascular Effects of Polychlorinated Biphenyls and Their Major Metabolites” (Environmental Health Perspectives, 2020).
Where a name gives a salt, the structure may show the parent alone.

System: iPSC-CMs, iPSC-ECs and HUVECs phenotypes
Experiment: ToxPi 2.0 integration of POD values and physicochemical descriptors
Set-up: species or system human
Settings: ToxPi-scaled (0-1) score; for huvec.cyto.24hr / huvec.mito.24hr / huvec.mitoint.24hr / huvec.nma.24hr / huvec.tc.24hr / huvec.mtl.18hr / huvec.tlps.18hr / huvec.tta.18hr / huvec.ttl.18hr: HUVECs; for huvec.mtl.18hr / huvec.tlps.18hr / huvec.tta.18hr / huvec.ttl.18hr / endo.mtl.18hr / endo.tlps.18hr / endo.tta.18hr / endo.ttl.18hr: tube formation; for cm.amp.avg.90min / cm.amp.cv.90min / cm.bpm.90min / cm.cam.90min / cm.decay.rise.90min / cm.mii.90min / cm.mito.90min / cm.spacing.cv.90min / cm.tc.90min / cm.amp.avg.24hrs / cm.amp.cv.24hrs / cm.bpm.24hrs / cm.cam.24hrs / cm.decay.rise.24hrs / cm.mii.24hrs / cm.mito.24hrs / cm.spacing.cv.24hrs / cm.tc.24hrs: iPSC cardiomyocytes; for endo.cyto.24hr / endo.mito.24hr / endo.mitoint.24hr / endo.nma.24hr / endo.tc.24hr / endo.mtl.18hr / endo.tlps.18hr / endo.tta.18hr / endo.ttl.18hr: iPSC endothelial cells
Text: Phenotypic responses were quantitatively assessed using concentration–response modeling as detailed elsewhere ([Sirenko et al. 2017]). Briefly, phenotypic readouts were normalized to vehicle controls and fit to a four-parameter logistic model in R studio software (version 3.1.1; R Development Core Team). Following EPA guidance on dose–response modeling, a cutoff of one standard deviation across means of vehicle control (i.e., 0.5% vol/vol DMSO in cell culture media) wells was applied to determine the point-of-departure (POD) values ([U.S. EPA 2012]). In the absence of a concentration–response, the highest tested concentration (i.e., 100μM ) was assigned as “no observable adverse effect level.” The concentration–response assessment R script, as well as templates for vehicle and concentration–response data, are available as a supplement to Sirenko et al. ([2017]). The ability of physicochemical properties to predict differences in PODs were evaluated by multiregression and mixed-effects modeling using R.
POD values were then integrated using ToxPi 2.0 ([Marvel et al. 2018]) software. In ToxPi, each slice is representative of cell type– and time-point–specific phenotypes. The area of each slice is proportional to the relative value (e.g., bioactivity or physicochemical descriptor value) of the chemical within the data set. ToxPi scores were used to rank PCBs and their metabolites according to their overall bioactivity and to determine variability in total observable biological responses and chemical characteristics for each major metabolite class and chlorination status (mono-, hexa-chlorinated). Additional visualizations such as dumbbell and principal components analysis plots were generated in R Studio (version 1.1.456; R version 3.5.1; R Development Core Team) using the ggplot2 package.

Oc1ccc(O)c(-c2ccc(Cl)cc2)c1 [2',5'-diOH-PCB 3, 4-Chloro-2′,5′-dihydroxybiphenyl]
huvec.cyto.24hr: 0.7001 | huvec.mito.24hr: 0.7865 | huvec.mitoint.24hr: 0.6634 | huvec.nma.24hr: 0.309 | huvec.tc.24hr: 0.7001 | huvec.mtl.18hr: 0.9783 | huvec.tlps.18hr: 0.7891 | huvec.tta.18hr: 0.8497 | huvec.ttl.18hr: 0.663 | cm.amp.avg.90min: 0.2608 | cm.amp.cv.90min: 0.5898 | cm.bpm.90min: 0.1802 | cm.cam.90min: 0.4648 | cm.decay.rise.90min: 0.2325 | cm.mii.90min: 0.9473 | cm.mito.90min: 0.8423 | cm.spacing.cv.90min: 0.3549 | cm.tc.90min: 0.4501 | cm.amp.avg.24hrs: 0.4147 | cm.amp.cv.24hrs: 0.7626 | cm.bpm.24hrs: 0.7331 | cm.cam.24hrs: 0.5361 | cm.decay.rise.24hrs: 0.935 | cm.mii.24hrs: 1 | cm.mito.24hrs: 1 | cm.spacing.cv.24hrs: 1 | cm.tc.24hrs: 0.9136 | endo.cyto.24hr: 0.4719 | endo.mito.24hr: 0.4719 | endo.mitoint.24hr: 0.1112 | endo.nma.24hr: 0.3504 | endo.tc.24hr: 0.5028 | endo.mtl.18hr: 0.5595 | endo.tlps.18hr: 0.8388 | endo.tta.18hr: 0.3744 | endo.ttl.18hr: 0.3867

Oc1ccccc1-c1ccc(Cl)cc1 [2'-OH-PCB 3]
huvec.cyto.24hr: 0.3062 | huvec.mito.24hr: 0.3804 | huvec.mitoint.24hr: 0.2116 | huvec.nma.24hr: 0.5273 | huvec.tc.24hr: 0.3062 | huvec.mtl.18hr: 0 | huvec.tlps.18hr: 0.9781 | huvec.tta.18hr: 0 | huvec.ttl.18hr: 0 | cm.amp.avg.90min: 1 | cm.amp.cv.90min: 1 | cm.bpm.90min: 0.6048 | cm.cam.90min: 0.4595 | cm.decay.rise.90min: 0.9737 | cm.mii.90min: 0.8925 | cm.mito.90min: 0.3599 | cm.spacing.cv.90min: 0.3323 | cm.tc.90min: 0.4365 | cm.amp.avg.24hrs: 0.2407 | cm.amp.cv.24hrs: 0.05985 | cm.bpm.24hrs: 0.1658 | cm.cam.24hrs: 0.1217 | cm.decay.rise.24hrs: 0.6737 | cm.mii.24hrs: 0.7202 | cm.mito.24hrs: 0.2606 | cm.spacing.cv.24hrs: 0.1842 | cm.tc.24hrs: 0.2359 | endo.cyto.24hr: 0.1423 | endo.mito.24hr: 0.1423 | endo.mitoint.24hr: 0 | endo.nma.24hr: 0.7069 | endo.tc.24hr: 0.06754 | endo.mtl.18hr: 0.2097 | endo.tlps.18hr: 0.3809 | endo.tta.18hr: 0.1099 | endo.ttl.18hr: 0.1352

Oc1cccc(-c2ccc(Cl)cc2)c1 [3'-OH-PCB 3]
huvec.cyto.24hr: 0.4672 | huvec.mito.24hr: 0.5506 | huvec.mitoint.24hr: 0.1749 | huvec.nma.24hr: 1 | huvec.tc.24hr: 0.4672 | huvec.mtl.18hr: 1 | huvec.tlps.18hr: 0.8699 | huvec.tta.18hr: 0.6576 | huvec.ttl.18hr: 0.5155 | cm.amp.avg.90min: 0.6872 | cm.amp.cv.90min: 0.2705 | cm.bpm.90min: 0.8835 | cm.cam.90min: 0.7562 | cm.decay.rise.90min: 0.4777 | cm.mii.90min: 0.3912 | cm.mito.90min: 0.7743 | cm.spacing.cv.90min: 0.07935 | cm.tc.90min: 0.7836 | cm.amp.avg.24hrs: 0.4464 | cm.amp.cv.24hrs: 0.3812 | cm.bpm.24hrs: 0.4553 | cm.cam.24hrs: 0.2634 | cm.decay.rise.24hrs: 0.8154 | cm.mii.24hrs: 0.3889 | cm.mito.24hrs: 0.4239 | cm.spacing.cv.24hrs: 0.8008 | cm.tc.24hrs: 0.4277 | endo.cyto.24hr: 0.1365 | endo.mito.24hr: 0.1365 | endo.mitoint.24hr: 0 | endo.nma.24hr: 0.4106 | endo.tc.24hr: 0.1112 | endo.mtl.18hr: 0.5876 | endo.tlps.18hr: 0.7333 | endo.tta.18hr: 0.4844 | endo.ttl.18hr: 0.4865

O=S(=O)(O)Oc1cccc(-c2ccc(Cl)cc2)c1 [3'-PCB 3 sulfate]
huvec.cyto.24hr: 0 | huvec.mito.24hr: 0 | huvec.mitoint.24hr: 0 | huvec.nma.24hr: 0 | huvec.tc.24hr: 0 | huvec.mtl.18hr: 0.4173 | huvec.tlps.18hr: 0 | huvec.tta.18hr: 0 | huvec.ttl.18hr: 0 | cm.amp.avg.90min: 0 | cm.amp.cv.90min: 0 | cm.bpm.90min: 0.07423 | cm.cam.90min: 0 | cm.decay.rise.90min: 0 | cm.mii.90min: 0.03988 | cm.mito.90min: 0 | cm.spacing.cv.90min: 0 | cm.tc.90min: 0 | cm.amp.avg.24hrs: 0 | cm.amp.cv.24hrs: 0 | cm.bpm.24hrs: 0 | cm.cam.24hrs: 0 | cm.decay.rise.24hrs: 0 | cm.mii.24hrs: 0 | cm.mito.24hrs: 0 | cm.spacing.cv.24hrs: 0 | cm.tc.24hrs: 0 | endo.cyto.24hr: 0 | endo.mito.24hr: 0 | endo.mitoint.24hr: 0 | endo.nma.24hr: 0 | endo.tc.24hr: 0 | endo.mtl.18hr: 0.5389 | endo.tlps.18hr: 0.1522 | endo.tta.18hr: 0.1963 | endo.ttl.18hr: 0.2248

O=S(=O)(O)Oc1cc(-c2ccccc2)ccc1Cl [3-PCB 3 sulfate]
huvec.cyto.24hr: 0 | huvec.mito.24hr: 0 | huvec.mitoint.24hr: 0 | huvec.nma.24hr: 0 | huvec.tc.24hr: 0 | huvec.mtl.18hr: 0.4834 | huvec.tlps.18hr: 0.07929 | huvec.tta.18hr: 0 | huvec.ttl.18hr: 0.09819 | cm.amp.avg.90min: 0.1033 | cm.amp.cv.90min: 0 | cm.bpm.90min: 0 | cm.cam.90min: 0 | cm.decay.rise.90min: 0 | cm.mii.90min: 0 | cm.mito.90min: 0 | cm.spacing.cv.90min: 0 | cm.tc.90min: 0 | cm.amp.avg.24hrs: 0 | cm.amp.cv.24hrs: 0 | cm.bpm.24hrs: 0 | cm.cam.24hrs: 0 | cm.decay.rise.24hrs: 0 | cm.mii.24hrs: 0.391 | cm.mito.24hrs: 0 | cm.spacing.cv.24hrs: 0 | cm.tc.24hrs: 0 | endo.cyto.24hr: 0 | endo.mito.24hr: 0 | endo.mitoint.24hr: 0 | endo.nma.24hr: 0 | endo.tc.24hr: 0 | endo.mtl.18hr: 0 | endo.tlps.18hr: 0.4317 | endo.tta.18hr: 0 | endo.ttl.18hr: 0
